# Biological target: GDP-loaded KRAS G12D (Homo sapiens, UniProt P01116, G12D)
# Test: KRAS G12D Probe Displacement Assay
# Type: binding
# Conditions: KRAS G12D 0.5 nM, biotinylated probe 2 4 nM; Table 6 letters; read-out: KRAS G12D Probe Displacement Assay IC50 (class)
# Chain of GDP-loaded KRAS G12D (P01116 1-188 isoform P01116-2 G12D): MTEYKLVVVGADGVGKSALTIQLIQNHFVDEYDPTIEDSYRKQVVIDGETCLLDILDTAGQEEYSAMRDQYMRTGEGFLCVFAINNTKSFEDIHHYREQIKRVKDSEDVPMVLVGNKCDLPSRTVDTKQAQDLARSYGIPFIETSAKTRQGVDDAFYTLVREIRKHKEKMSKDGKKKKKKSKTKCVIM
row,SMILES,IC50
1,"Cc1cc(N)nc(-c2c(C3CC3)cc3c(N4CC5CCC(C4)N5)nc(OC[C@@]45CCCN4C[C@H](F)C5)nc3c2F)c1C(F)(F)F [Example E129, 6-(4-(3,8-diazabicyclo[3.2.1]octan-3-yl)-6-cyclopropyl-8-fluoro-2-(((2R,7aS)-2-fluorotetrahydro-1H-pyrrolizin-7a(5H)-yl)methoxy)quinazolin-7-yl)-4-methyl-5-(trifluoromethyl)pyridin-2-amine]",< 50 nM
2,"CC(F)(F)c1c(Cl)cc(N)nc1-c1c(Cl)cc2c(N3CC4CCC(C3)N4)nc(OC[C@@]34CCCN3C[C@H](F)C4)nc2c1F [Example E130, 6-(4-(3,8-diazabicyclo[3.2.1]octan-3-yl)-6-chloro-8-fluoro-2-(((2R,7aS)-2-fluorotetrahydro-1H-pyrrolizin-7a(5H)-yl)methoxy)quinazolin-7-yl)-4-chloro-5-(1,1-difluoroethyl)pyridin-2-amine]",< 50 nM
3,"Cn1nc(N)c(-c2cc3nc(OC[C@@]45CCCN4C[C@H](F)C5)nc(N4CC5CCC(C4)N5)c3cc2Cl)c1C1CC1 [Example E135, 4-(4-(3,8-diazabicyclo[3.2.1]octan-3-yl)-6-chloro-2-(((2R,7aS)-2-fluorotetrahydro-1H-pyrrolizin-7a(5H)-yl)methoxy)quinazolin-7-yl)-5-cyclopropyl-1-methyl-1H-pyrazol-3-amine]",> 1000 nM
4,"F[C@H]1CN2CCC[C@@]2(COc2nc(N3CC4CCC(C3)N4)c3cc(Cl)c(-n4ncc5cccc(Cl)c54)cc3n2)C1 [Example E136, 4-(3,8-diazabicyclo[3.2.1]octan-3-yl)-6-chloro-7-(7-chloro-1H-indazol-1-yl)-2-(((2R,7aS)-2-fluorotetrahydro-1H-pyrrolizin-7a(5H)-yl)methoxy)quinazoline]",> 1000 nM
5,"COC[C@@]1(COc2nc(N3C4CNCC3COC4)c3cc(F)c(-c4nc(N)cc(C)c4C(F)(F)F)c(F)c3n2)C[C@@H](F)CN1C [Example E137, 6-(4-(3-oxa-7,9-diazabicyclo[3.3.1]nonan-9-yl)-6,8-difluoro-2-(((2R,4R)-4-fluoro-2-(methoxymethyl)-1-methylpyrrolidin-2-yl)methoxy)quinazolin-7-yl)-4-methyl-5-(trifluoromethyl)pyridin-2-amine]",100 to 1000 nM
6,"COC1CN2CC(F)CC2(COc2nc(N3C4CNCC3COC4)c3cc(F)c(-c4nc(N)cc(C)c4C(F)(F)F)c(F)c3n2)C1 (stereo not drawn) [Example E138, 6-(4-(3-oxa-7,9-diazabicyclo[3.3.1]nonan-9-yl)-6,8-difluoro-2-((2-fluoro-6-methoxytetrahydro-1H-pyrrolizin-7a(5H)-yl)methoxy)quinazolin-7-yl)-4-methyl-5-(trifluoromethyl)pyridin-2-amine]",100 to 1000 nM
7,"Nc1nc2c(-c3c(C(F)(F)F)cc4c(N5C6CNCC5COC6)nc(OCC56CC(F)CN5CC(F)C6)nc4c3F)ccc(F)c2s1 (stereo not drawn) [Example E139, 4-(4-(3-oxa-7,9-diazabicyclo[3.3.1]nonan-9-yl)-2-((2,6-difluorotetrahydro-1H-pyrrolizin-7a(5H)-yl)methoxy)-8-fluoro-6-(trifluoromethyl)quinazolin-7-yl)-7-fluorobenzo[d]thiazol-2-amine]",< 50 nM
8,"Nc1nc2c(-c3c(C(F)(F)F)cc4c(N5CC6CCC(C5)N6)nc(OCC(O)CO)nc4c3F)ccc(F)c2s1 (stereo not drawn) [Example E141, 3-((7-(2-amino-7-fluorobenzo[d]thiazol-4-yl)-4-(3,8-diazabicyclo [3.2.1]octan-3-yl)-8-fluoro-6-(trifluoromethyl)quinazolin-2-yl)oxy)propane-1,2-diol]",< 50 nM
9,"CC(CO)COc1nc(N2CC3CCC(C2)N3)c2cc(C(F)(F)F)c(-c3ccc(F)c4sc(N)nc34)c(F)c2n1 (stereo not drawn) [Example E142, 3-((7-(2-amino-7-fluorobenzo[d]thiazol-4-yl)-4-(3,8-diazabicyclo [3.2.1]octan-3-yl)-8-fluoro-6-(trifluoromethyl)quinazolin-2-yl)oxy)-2-methylpropan-1-ol]",< 50 nM
10,Nc1nc2c(-c3c(C(F)(F)F)cc4c(N5CC6CCC(C5)N6)nc(OC5CCOC5)nc4c3F)ccc(F)c2s1 (stereo not drawn) [Example E143],< 50 nM
11,"Nc1nc2c(-c3c(C(F)(F)F)cc4c(N5CC6CCC(C5)N6)nc(OCC5CCOCC5)nc4c3F)ccc(F)c2s1 [Example E144, 4-(4-(3,8-diazabicyclo[3.2.1]octan-3-yl)-8-fluoro-2-((tetrahydro-2H-pyran-4-yl)methoxy)-6-(trifluoromethyl)quinazolin-7-yl)-7-fluorobenzo[d]thiazol-2-amine]",< 50 nM
12,"Nc1nc2c(-c3c(C(F)(F)F)cc4c(N5CC6CCC(C5)N6)nc(OCC5CCOC5)nc4c3F)ccc(F)c2s1 (stereo not drawn) [Example E145, 4-(4-(3,8-diazabicyclo[3.2.1]octan-3-yl)-8-fluoro-2-((tetrahydrofuran-3-yl)methoxy)-6-(trifluoromethyl)quinazolin-7-yl)-7-fluorobenzo [d]thiazol-2-amine]",< 50 nM
13,"Nc1nc2c(-c3c(C(F)(F)F)cc4c(N5CC6CCC(C5)N6)nc(OC5CS(=O)(=O)C5)nc4c3F)ccc(F)c2s1 [Example E148, 3-((7-(2-amino-7-fluorobenzo[d]thiazol-4-yl)-4-(3,8-diazabicyclo [3.2.1]octan-3-yl)-8-fluoro-6-(trifluoromethyl)quinazolin-2-yl)oxy)thietane 1,1-dioxide]",< 50 nM
14,"COC1CC(COc2nc(N3CC4CCC(C3)N4)c3cc(C(F)(F)F)c(-c4ccc(F)c5sc(N)nc45)c(F)c3n2)C1 (stereo not drawn) [Example E150, 4-(4-(3,8-diazabicyclo[3.2.1]octan-3-yl)-8-fluoro-2-((3-methoxycyclobutyl)methoxy)-6-(trifluoromethyl)quinazolin-7-yl)-7-fluorobenzo[d]thiazol-2-amine]",< 50 nM
15,"N#CC1(F)CC(Oc2nc(N3CC4CCC(C3)N4)c3cc(C(F)(F)F)c(-c4ccc(F)c5sc(N)nc45)c(F)c3n2)C1 (stereo not drawn) [Example E151, 3-((7-(2-amino-7-fluorobenzo[d]thiazol-4-yl)-4-(3,8-diazabicyclo[3.2.1]octan-3-yl)-8-fluoro-6-(trifluoromethyl)quinazolin-2-yl)oxy)-1-fluorocyclo butane-1-carbonitrile]",< 50 nM
16,"Nc1nc2c(-c3c(C(F)(F)F)cc4c(N5CC6CCC(C5)N6)nc(OCC56COC(C5)C6)nc4c3F)ccc(F)c2s1 [Example E152, 4-(2-((2-oxabicyclo[2.1.1]hexan-4-yl)methoxy)-4-(3,8-diazabicyclo[3.2.1]octan-3-yl)-8-fluoro-6-(trifluoromethyl)quinazolin-7-yl)-7-fluorobenzo[d] thiazol-2-amine]",< 50 nM

# Other lines, results leading:
row,IC50,SMILES
1,< 50 nM,"COCC1CCC2(COc3nc(N4CC5CCC(C4)N5)c4cc(C(F)(F)F)c(-c5ccc(F)c6sc(N)nc56)c(F)c4n3)CCCN12 (stereo not drawn) [Example E131, 4-(4-(3,8-diazabicyclo[3.2.1]octan-3-yl)-8-fluoro-2-((3-(methoxymethyl)tetrahydro-1H-pyrrolizin-7a(5H)-yl)methoxy)-6-(trifluoromethyl)quinazolin-7-yl)-7-fluorobenzo[d]thiazol-2-amine]"
2,< 50 nM,"N#Cc1c(N)sc2c(F)ccc(-c3c(Cl)cc4c(N5CC6CCC(C5)N6)nc(OCC5(CN6CCC(F)C6)CCC5)nc4c3F)c12 (stereo not drawn) [Example E132, 4-(4-(3,8-diazabicyclo[3.2.1]octan-3-yl)-6-chloro-8-fluoro-2-((1-((3-fluoropyrrolidin-1-yl)methyl)cyclobutyl)methoxy)quinazolin-7-yl)-2-amino-7-fluorobenzo [b]thiophene-3-carbonitrile]"
3,< 50 nM,"Cc1cc(N)nc(-c2c(Cl)cc3c(N4CC5CCC(C4)N5)nc(OCC45CCCN4C(CF)CC5)nc3c2F)c1C(F)(F)F (stereo not drawn) [Example E133, 6-(4-(3,8-diazabicyclo[3.2.1]octan-3-yl)-6-chloro-8-fluoro-2-((3-(fluoromethyl)tetrahydro-1H-pyrrolizin-7a(5H)-yl)methoxy)quinazolin-7-yl)-4-methyl-5-(trifluoromethyl)pyridin-2-amine]"
4,< 50 nM,"COCC1CC2(COc3nc(N4CC5CCC(C4)N5)c4cc(C(F)(F)F)c(-c5ccc(F)c6sc(N)nc56)c(F)c4n3)CC(F)CN12 (stereo not drawn) [Example E134, 4-(4-(3,8-diazabicyclo[3.2.1]octan-3-yl)-8-fluoro-2-((3-fluoro-7-(methoxymethyl)-1-azabicyclo[3.2.0]heptan-5-yl)methoxy)-6-(trifluoromethyl)quinazolin-7-yl)-7-fluorobenzo[d]thiazol-2-amine]"
5,< 50 nM,"Nc1nc2c(-c3c(Cl)cc4c(N5CC6CCC(C5)N6)nc(OC[C@@]56CCCN5C[C@H](F)C6)nc4c3F)cc(Cl)cc2s1 [Example E140, 4-(4-(3,8-diazabicyclo[3.2.1]octan-3-yl)-6-chloro-8-fluoro-2-(((2R,7aS)-2-fluorotetrahydro-1H-pyrrolizin-7a(5H)-yl)methoxy)quinazolin-7-yl)-6-chlorobenzo [d]thiazol-2-amine]"
6,< 50 nM,"Nc1nc2c(-c3c(C(F)(F)F)cc4c(N5CC6CCC(C5)N6)nc(OCC5CCCCO5)nc4c3F)ccc(F)c2s1 (stereo not drawn) [Example E146, 4-(4-(3,8-diazabicyclo[3.2.1]octan-3-yl)-8-fluoro-2-((tetrahydro-2H-pyran-2-yl)methoxy)-6-(trifluoromethyl)quinazolin-7-yl)-7-fluorobenzo[d]thiazol-2-amine]"
7,< 50 nM,"N#CC1(COc2nc(N3CC4CCC(C3)N4)c3cc(C(F)(F)F)c(-c4ccc(F)c5sc(N)nc45)c(F)c3n2)CC1 [Example E147, 1-(((7-(2-amino-7-fluorobenzo[d]thiazol-4-yl)-4-(3,8-diazabicyclo [3.2.1]octan-3-yl)-8-fluoro-6-(trifluoromethyl)quinazolin-2-yl)oxy)methyl)cyclopropane-1-carbonitrile]"
8,< 50 nM,"Nc1nc2c(-c3c(C(F)(F)F)cc4c(N5CC6CCC(C5)N6)nc(OCC5(CO)CC5)nc4c3F)ccc(F)c2s1 [Example E149, (1-(((7-(2-amino-7-fluorobenzo[d]thiazol-4-yl)-4-(3,8-diazabicyclo[3.2.1]octan-3-yl)-8-fluoro-6-(trifluoromethyl)quinazolin-2-yl)oxy)methyl)cyclopropyl) methanol]"
